From patent publication US20260015451A1, “FOAMED-RESIN-FORMABLE COMPOSITION, POLYUREA-BASED RESIN FOAM BODY, AND POLYUREA-BASED RESIN FOAM BODY PRODUCTION METHOD” (MITSUBISHI GAS CHEMICAL COMPANY, INC., priority 2022, published 2026)

Key:
[1] = Maximum carbon dioxide (CO2) release temperature by DSC; type: physicochemical; conditions: after 24 hours in air at 23° C. and 50% RH; heating rate 10° C./minute, nitrogen
Procedure: A carbon dioxide detector and a Petri dish were placed in an openable desiccator (inner dimension: 370 mm × 260 mm × 272 mm). Subsequently, the cyclic polyamine compound (5 mmol) was added to the Petri dish in the desiccator and the door was immediately closed to leave the cyclic polyamine compound to stand in the desiccator in an air environment at 23° C. and 50% RH for 24 hours. The initial concentration of carbon dioxide was adjusted to about 400 ppm.
Then the cyclic polyamine compound was taken out of the desiccator to give a cyclic polyamine compound with carbon dioxide absorbed. The maximum carbon dioxide release temperature of the cyclic polyamine compound with carbon dioxide absorbed was measured by subjecting the cyclic polyamine compound to DSC as described below. First, differential scanning calorimetry of the cyclic polyamine compound was performed under conditions of a temperature range of 23 to 250° C., a heating rate of 10° C./minute and a nitrogen atmosphere using a differential thermogravimeter (product name DTG-60 made by Shimadzu Corporation). The temperature at which the amount of heat absorbed due to the desorption of carbon dioxide was the maximum was calculated from the DSC curve obtained, and the temperature was determined as the maximum carbon dioxide release temperature of the cyclic polyamine compound.

[2] = Percentage increase of mass after standing in air (absorption of carbon dioxide); type: physicochemical; conditions: air environment at 23° C. and 50% RH for a week
Procedure: A cyclic polyamine compound, MXDA, was put in a container and left to stand in an air environment at 23° C. and 50% RH for a week. By doing so, MXDA and carbon dioxide in the air were reacted to give a reaction product of MXDA and carbon dioxide (carbonate of MXDA). At that stage, to suppress uneven reaction, the container in which the cyclic polyamine compound was placed was shaken as necessary so as not to leave unreacted MXDA. The water content in the resulting reaction product (carbonate of MXDA) was 0% by mass.
Next, the amount of increase of the mass of MXDA was measured, and the percentage increase of the mass of the cyclic polyamine compound was calculated by the following equation.
Percentage increase of mass of cyclic polyamine compound [% by mass]=100×amount of increase of mass of cyclic polyamine compound (g)/(initial mass of cyclic polyamine compound (g)[…])

maximum carbon dioxide (CO2) release temperature [1]: 135.5 °C | percentage increase of the mass [2]: 24.1 % by mass
Structure (SMILES): NCc1cccc(CN)c1 [MXDA, metaxylylenediamine]
